Data on one compound can be found in ChEMBL document CHEMBL2074358, “Differential gene expression of organic anion transporters in male and female rats” (Biochem Biophys Res Commun, 2002).

Series [1] deals with T1, Organic anion transporter 3 (Rattus norvegicus, UniProt Q9R1U7).
T1 sequence (Q9R1U7 whole entry): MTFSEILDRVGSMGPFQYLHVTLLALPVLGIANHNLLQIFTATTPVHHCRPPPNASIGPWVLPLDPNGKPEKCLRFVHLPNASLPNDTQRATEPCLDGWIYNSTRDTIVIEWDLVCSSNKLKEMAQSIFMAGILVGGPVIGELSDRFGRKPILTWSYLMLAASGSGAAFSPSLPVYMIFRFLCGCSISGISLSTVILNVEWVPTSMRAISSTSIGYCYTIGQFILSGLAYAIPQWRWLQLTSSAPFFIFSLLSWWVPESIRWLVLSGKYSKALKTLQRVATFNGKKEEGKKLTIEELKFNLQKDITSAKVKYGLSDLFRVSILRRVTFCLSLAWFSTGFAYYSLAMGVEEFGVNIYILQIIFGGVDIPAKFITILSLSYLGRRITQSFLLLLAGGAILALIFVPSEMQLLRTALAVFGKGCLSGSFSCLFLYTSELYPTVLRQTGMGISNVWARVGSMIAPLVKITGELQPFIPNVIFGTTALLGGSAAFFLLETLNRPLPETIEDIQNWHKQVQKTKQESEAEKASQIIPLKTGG
Briefly: (§1) TP_TRANSPORTER: Northern blot in vivo, kidney of Wistar rat. The format is functional, organism-based.

The target of series [2] is T2, Solute carrier family 22 member 7 (Rattus norvegicus, UniProt Q5RLM2).
T2 sequence (Q5RLM2 whole entry): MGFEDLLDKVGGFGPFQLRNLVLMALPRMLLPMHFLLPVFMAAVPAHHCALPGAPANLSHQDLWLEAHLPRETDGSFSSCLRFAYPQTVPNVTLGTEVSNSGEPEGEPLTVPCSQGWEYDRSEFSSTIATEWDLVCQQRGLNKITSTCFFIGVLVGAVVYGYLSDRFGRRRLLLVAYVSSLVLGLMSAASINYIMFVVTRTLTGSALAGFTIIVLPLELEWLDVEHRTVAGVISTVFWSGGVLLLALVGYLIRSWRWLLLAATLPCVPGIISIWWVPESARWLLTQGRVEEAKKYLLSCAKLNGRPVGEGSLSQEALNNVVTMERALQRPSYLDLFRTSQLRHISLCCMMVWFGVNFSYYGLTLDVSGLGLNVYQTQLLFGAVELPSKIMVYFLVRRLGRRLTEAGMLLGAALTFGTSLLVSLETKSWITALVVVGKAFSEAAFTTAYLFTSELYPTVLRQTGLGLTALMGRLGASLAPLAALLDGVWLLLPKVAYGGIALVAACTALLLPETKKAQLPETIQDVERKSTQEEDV
The description is as §1. The format is functional, organism-based.

In the case of `C[C@]12CC[C@H]3[C@@H](CCC4=CC(=O)CC[C@@]43C)[C@@H]1CC[C@@H]2O` [TESTOSTERONE], the values for the Activity entry in series [1] and in series [2] were “inducer [+]” and “inducer [Decrease]”, respectively.
